Laboratory results published in US20240173255A1, “Polymeric Micelle Coated with Chain-Like Poorly Soluble Drug, Preparation Method and Application” (Hangzhou Hanjing Biotechnology Co., Ltd, priority 2021, published 2024).
In brackets after ≈: the same amount, converted by molar mass. One block for each molecule: values may come before it.

Legend:
[1] = Solubility of series A to E drugs in water and 10% Soluplus solution; assay type: physicochemical; conditions: for Solubility in 10% Soluplus: 10% Soluplus solution
Text: The solubilities of the poorly soluble chain-like drugs of the series A to E according to the present disclosure in water and a 10% Soluplus solution are shown in Table 2.

[2] = Solubilities of ethaselen and compounds of Examples 1 to 5 in water, DMSO and Soluplus solutions; assay type: physicochemical
Text: (§1) The hydrophobic constants and solubilities of the selenium-containing glutaminase inhibitors from series A to E prepared according to Examples 1 to 5 of the present disclosure as well as the commercially available ethaselen in water, dimethylsulfoxide (DMSO), and Soluplus solutions are shown in Table 4.

[3] = Hydrophobic constant; assay type: physicochemical
Text: as §1

[4] = Water solubility stated in background; conditions: background statement
[5] = Solubility of compound CPD4 in different solvents or carriers (HPLC of supernatant); assay type: physicochemical
Experimental: Taking the symmetric diselenoline molecule CPD4 from series A prepared according to Example 1 as an example, solubilities in different solvents and carriers were measured separately. A test method was conducted as follows: 1 mg of the compound was added into 1 mL of different solvents or carriers separately, ultrasonicated in a water bath for 10 min to fully dissolve the compound to obtain a mixture, and the mixture was stirred at ambient temperature for 12 h, and centrifuged, and a compound concentration in a resulting supernatant was determined by HPLC.

[6] = Sodium acetate buffer (pH = 4.5)

Compound: O=c1c2ccccc2[se]n1CCCCCn1[se]c2ccccc2c1=O [CPD3]
Solubility in 10% Soluplus [1]: 300 µg/mL (≈ 646 µM)
Solubility in water [1]: 1 µg/mL (≈ 2.15 µM)

Compound: COc1ccc2[se]n(CCCCCCCn3[se]c4ccc(OCCCN=[N+]=[N-])cc4c3=O)c(=O)c2c1 [CPD20]
Solubility in 10% Soluplus [1]: >1000 µg/mL
Solubility in water [1]: <10 µg/mL

Compound: O=c1c2ccccc2[se]n1CCCCCCCn1[se]c2ccccc2c1=O [CPD5]
Solubility in 10% Soluplus [1]: 500 µg/mL (≈ 1020 µM)
Solubility in water [1]: 1 µg/mL (≈ 2.03 µM)

Compound: COc1ccc2[se]n(CCCCCCn3[se]c4ccc(OCCCN(C)C)cc4c3=O)c(=O)c2c1 [CPD24]
Solubility in 10% Soluplus [1]: >1000 µg/mL
Solubility in water [1]: <10 µg/mL

Compound: O=c1c2ccccc2[se]n1CCCCn1[se]c2ccccc2c1=O [CPD2]
Solubility in 10% Soluplus [1]: 200 µg/mL (≈ 444 µM)
Solubility in water [1]: 1 µg/mL (≈ 2.22 µM)

Compound: COc1ccc2[se]n(CCCn3[se]c4ccc(O)cc4c3=O)c(=O)c2c1 [CPD11]
Solubility in 10% Soluplus [1]: >1000 µg/mL
Solubility in water [1]: 15 µg/mL (≈ 31.1 µM)

Compound: COc1ccc2[se]n(CCCn3[se]c4ccc(OCCCn5nnnc5C)cc4c3=O)c(=O)c2c1 [CPD26]
Solubility in 10% Soluplus [1]: >1000 µg/mL
Solubility in water [1]: <10 µg/mL

Compound: O=c1c2ccccc2[se]n1CCCn1[se]c2ccccc2c1=O [CPD1]
Solubility in 10% Soluplus [1]: 200 µg/mL (≈ 458 µM)
Solubility in water [1]: 4 µg/mL (≈ 9.17 µM)

Compound: COc1ccc2[se]n(Cc3cccc(Cn4[se]c5ccc(OCCCN=[N+]=[N-])cc5c4=O)c3)c(=O)c2c1 [CPD32]
Solubility in 10% Soluplus [1]: >1000 µg/mL
Solubility in water [1]: <10 µg/mL

Compound: COc1ccc2[se]n(CCCCCn3[se]c4ccc(O)cc4c3=O)c(=O)c2c1 [CPD13]
Solubility in 10% Soluplus [1]: >1000 µg/mL
Solubility in water [1]: 10 µg/mL (≈ 19.6 µM)

Compound: COc1ccc2[se]n(CCCCCCCn3[se]c4ccc(OCCCn5nnnc5C)cc4c3=O)c(=O)c2c1 [CPD30]
Solubility in 10% Soluplus [1]: >1000 µg/mL
Solubility in water [1]: <10 µg/mL

Compound: O=c1c2cccc(F)c2[se]n1CCCCCn1[se]c2c(F)cccc2c1=O [CPD8]
Solubility in 10% Soluplus [1]: 300 µg/mL (≈ 600 µM)
Solubility in water [1]: 1 µg/mL (≈ 2 µM)

Compound: COc1ccc2[se]n(CCCCn3[se]c4ccc(OCCCN=[N+]=[N-])cc4c3=O)c(=O)c2c1 [CPD17]
Solubility in 10% Soluplus [1]: >1000 µg/mL
Solubility in water [1]: <10 µg/mL

Compound: O=C(CCCCCn1[se]c2ccccc2c1=O)Oc1ccccc1 [CPD36]
Solubility in 10% Soluplus [1]: >1000 µg/mL
Solubility in water [1]: <10 µg/mL

Compound: COc1ccc2[se]n(CCCCCCCn3[se]c4ccc(OCCCN(C)C)cc4c3=O)c(=O)c2c1 [CPD25]
Solubility in 10% Soluplus [1]: >1000 µg/mL
Solubility in water [1]: <10 µg/mL

Compound: O=C(NCCCCCn1[se]c2ccccc2c1=O)c1ccccc1 [CPD38]
Solubility in 10% Soluplus [1]: >1000 µg/mL
Solubility in water [1]: <10 µg/mL

Solubility ([2]; DMSO, organic solvent or mixture, read-out: Solubility in DMSO): 22000 µg/mL (≈ 52100 µM)
Solubility ([2]; water, read-out: Solubility in Water): 2 to 3 µg/mL (≈ 4.74 to 7.11 µM)
Hydrophobic constant [3]: 1.87
Compound: O=c1c2ccccc2[se]n1CCn1[se]c2ccccc2c1=O [Ethaselen, ethaselen]

Compound: COc1ccc2[se]n(Cc3cccc(Cn4[se]c5ccc(O)cc5c4=O)c3)c(=O)c2c1 [CPD31]
Solubility in 10% Soluplus [1]: >1000 µg/mL
Solubility in water [1]: <10 µg/mL

Compound: COc1ccc2[se]n(Cc3cccc(Cn4[se]c5ccc(OCCCN(C)C)cc5c4=O)c3)c(=O)c2c1 [CPD33]
Solubility in 10% Soluplus [1]: >1000 µg/mL
Solubility in water [1]: <10 µg/mL

Compound: COc1ccc2[se]n(CCCCCCn3[se]c4ccc(O)cc4c3=O)c(=O)c2c1
water solubility [4]: 3.3 µg/mL (≈ 6.29 µM)

Compound: O=C(CCCCCn1[se]c2ccccc2c1=O)Nc1ccccc1 [CPD37]
Solubility in 10% Soluplus [1]: >1000 µg/mL
Solubility in water [1]: <10 µg/mL

Compound: COc1ccc2[se]n(CCCCCCCn3[se]c4ccc(O)cc4c3=O)c(=O)c2c1 [CPD15]
Solubility in 10% Soluplus [1]: >1000 µg/mL
Solubility in water [1]: 10 µg/mL (≈ 18.6 µM)

Compound: O=c1c2cccc(F)c2[se]n1CCCCCCn1[se]c2c(F)cccc2c1=O [CPD9]
Solubility in 10% Soluplus [1]: 800 µg/mL (≈ 1560 µM)
Solubility in water [1]: 1 µg/mL (≈ 1.94 µM)

Compound: COc1ccc2[se]n(CCCCn3[se]c4ccc(OCCCn5nnnc5C)cc4c3=O)c(=O)c2c1 [CPD27]
Solubility in 10% Soluplus [1]: >1000 µg/mL
Solubility in water [1]: <10 µg/mL

Compound: O=c1c2cccc(F)c2[se]n1CCCCn1[se]c2c(F)cccc2c1=O [CPD7]
Solubility in 10% Soluplus [1]: 250 µg/mL (≈ 514 µM)
Solubility in water [1]: 2 µg/mL (≈ 4.11 µM)

Compound: COc1ccc2[se]n(CCCCCCn3[se]c4ccc(OCCCn5nnnc5C)cc4c3=O)c(=O)c2c1 [CPD29]
Solubility in 10% Soluplus [1]: >1000 µg/mL
Solubility in water [1]: <10 µg/mL

Compound: COc1ccc2[se]n(CCCCn3[se]c4ccc(OCCCN(C)C)cc4c3=O)c(=O)c2c1 [CPD22]
Solubility in 10% Soluplus [1]: >1000 µg/mL
Solubility in water [1]: <10 µg/mL

Compound: O=c1c2ccccc2[se]n1CCCCCCn1[se]c2ccccc2c1=O [CPD4]
Dissolution multiple ([5]; Acetone): 275
Solubility ([5]; Acetone): 440 ± 40 µg/mL (≈ 920 µM)
Dissolution multiple ([5]; Acetonitrile): 263
Solubility ([5]; Acetonitrile): 420 ± 5 µg/mL (≈ 878 µM)
Dissolution multiple ([5]; DMF): 10819
Solubility ([5]; DMF): 17310 ± 320 µg/mL (≈ 36200 µM)
Dissolution multiple ([5]; DMSO): 21131
Solubility ([5]; DMSO): 33810 ± 700 µg/mL (≈ 70700 µM)
Dissolution multiple ([5]; Dichloromethane): 1981
Solubility ([5]; Dichloromethane): 3170 ± 160 µg/mL (≈ 6630 µM)
Dissolution multiple ([5]; Ethanol): 800
Solubility ([5]; Ethanol): 1280 ± 40 µg/mL (≈ 2680 µM)
Dissolution multiple ([5]; Ethyl acetate): 150
Solubility ([5]; Ethyl acetate): 240 ± 20 µg/mL (≈ 502 µM)
Dissolution multiple ([5]; Hydrochloric acid (pH = 1.2)): 1.38
Solubility ([5]; Hydrochloric acid (pH = 1.2)): 2.2 ± 0.26 µg/mL (≈ 4.6 µM)
Dissolution multiple ([5]; Isopropanol): 613
Solubility ([5]; Isopropanol): 980 ± 60 µg/mL (≈ 2050 µM)
Dissolution multiple ([5]; Liposome: Cholesterol): 46
Solubility ([5]; Liposome: Cholesterol): 60 ± 1 µg/mL (≈ 125 µM)
Dissolution multiple ([5]; Liposome: Lecithin): 40
Solubility ([5]; Liposome: Lecithin): 40 ± 5 µg/mL (≈ 83.6 µM)
Dissolution multiple ([5]; Methanol): 881
Solubility ([5]; Methanol): 1410 ± 130 µg/mL (≈ 2950 µM)
Dissolution multiple ([5]; PBS (pH = 7.4)): 0.5
Solubility ([5]; PBS (pH = 7.4)): 0.8 ± 0.15 µg/mL (≈ 1.67 µM)
Dissolution multiple [5, 6]: 0.81
Solubility [5, 6]: 1.3 ± 0.47 µg/mL (≈ 2.72 µM)
Dissolution multiple ([5]; Solid adjuvant F68): 8.1
Solubility ([5]; Solid adjuvant F68): 13 ± 3 µg/mL
Dissolution multiple ([5]; Solid adjuvant F127): 61
Solubility ([5]; Solid adjuvant F127): 98 ± 8 µg/mL
Dissolution multiple ([5]; Solid adjuvant HP-β-CD): 38
Solubility ([5]; Solid adjuvant HP-β-CD): 60 ± 3 µg/mL
Dissolution multiple ([5]; Solid adjuvant PEG2000): 4.4
Solubility ([5]; Solid adjuvant PEG2000): 7 ± 2 µg/mL
Dissolution multiple ([5]; Solid adjuvant PEG4000): 5
Solubility ([5]; Solid adjuvant PEG4000): 8 ± 1 µg/mL
Dissolution multiple ([5]; Solid adjuvant PEG6000): 3.8
Solubility ([5]; Solid adjuvant PEG6000): 6 ± 1 µg/mL
Dissolution multiple ([5]; Solid adjuvant SBE-β-CD): 44
Solubility ([5]; Solid adjuvant SBE-β-CD): 71 ± 4 µg/mL
Dissolution multiple ([5]; Soluplus): 400
Solubility ([5]; Soluplus): 515 ± 8 µg/mL (≈ 1080 µM)
Dissolution multiple ([5]; n-Octanol): 662
Solubility ([5]; n-Octanol): 1060 ± 80 µg/mL (≈ 2220 µM)
Solubility ([5]; water): 1.6 ± 0.05 µg/mL (≈ 3.35 µM)
Solubility in 10% Soluplus [1]: 500 µg/mL (≈ 1050 µM)
Solubility in water [1]: 1 µg/mL (≈ 2.09 µM)

Compound: COc1ccc2[se]n(CCCCCn3[se]c4ccc(OCCCN(C)C)cc4c3=O)c(=O)c2c1 [CPD23]
Solubility in 10% Soluplus [1]: >1000 µg/mL
Solubility in water [1]: <10 µg/mL

Compound: COc1ccc2[se]n(CCCCCCn3[se]c4ccc(OCCCN=[N+]=[N-])cc4c3=O)c(=O)c2c1 [CPD19]
Solubility in 10% Soluplus [1]: >1000 µg/mL
Solubility in water [1]: <10 µg/mL

Compound: O=c1c2cccc(F)c2[se]n1CCCCCCCn1[se]c2c(F)cccc2c1=O [CPD10]
Solubility in 10% Soluplus [1]: 600 µg/mL (≈ 1140 µM)
Solubility in water [1]: 1 µg/mL (≈ 1.89 µM)

Compound: COc1ccc2[se]n(CCCCCn3[se]c4ccc(OCCCN=[N+]=[N-])cc4c3=O)c(=O)c2c1 [CPD18]
Solubility in 10% Soluplus [1]: >1000 µg/mL
Solubility in water [1]: <10 µg/mL

Compound: COc1ccc2[se]n(CCCCCn3[se]c4ccc(OCCCn5nnnc5C)cc4c3=O)c(=O)c2c1 [CPD28]
Solubility in 10% Soluplus [1]: >1000 µg/mL
Solubility in water [1]: <10 µg/mL

Compound: COc1ccc2[se]n(CCCn3[se]c4ccc(OCCCN(C)C)cc4c3=O)c(=O)c2c1 [CPD21]
Solubility in 10% Soluplus [1]: >1000 µg/mL
Solubility in water [1]: <10 µg/mL

Compound: COc1ccc2[se]n(Cc3cccc(Cn4[se]c5ccc(OCCCn6nnnc6C)cc5c4=O)c3)c(=O)c2c1 [CPD34]
Solubility in 10% Soluplus [1]: >1000 µg/mL
Solubility in water [1]: <10 µg/mL
